Literature values as cited in patent US5691373A, “Nonpeptide endothelin antagonists I” (Warner-Lambert Company, priority 1995, dated 1997).
Read-outs that look alike come from different tables or passages of the source. Where a SMILES comes first, the peptide text is derived from it. [ ]: non-standard residue; d: D form.

Assays:
[1] = system: ETA; settings: cited from earlier work
[2] = system: cerebral vasospasm; settings: in vivo; cited from earlier work
[3] = system: cerebral vasospasm; settings: rat; cited from earlier work
[4] = system: endotoxic shock; settings: cited from earlier work
[5] = system: cerebral vasospasm; settings: rabbit; cited from earlier work
[6] = system: ET-1 induced bronchoconstriction and tracheal smooth muscle contraction; settings: allergic sheep; cited from earlier work

Cc1noc(NS(=O)(=O)c2cccc3c(N(C)C)cccc23)c1C [5-(Dimethylemino)-N-(3,4-dimethyl-5-isoxazolyl)-1-naphthalenesulfonamide]
oral antihypertensive effect [1]: demonstrated an oral antihypertensive effect

CC(C)C[C@@H]1NC(=O)[C@@H](C(C)C)NC(=O)[C@@H]2CCCN2C(=O)[C@@H](CC(=O)O)NC(=O)[C@@H](Cc2c[nH]c3ccccc23)NC1=O [BQ-123] (cyclo(L[dW][dD]P[dV]))
early cerebral vasospasm following subarachnoid hemorrhage [2]: prevent early cerebral vasospasm following subarachnoid hemorrhage | early cerebral vasospasm following SAH [3]: prevents early cerebral vasospasm following SAH | survival rate [4]: significantly increased the survival rate | early cerebral vasospasm following SAH [5]: prevents early cerebral vasospasm following SAH | ET-1 induced bronchoconstriction and tracheal smooth muscle contraction [6]: block ET-1 induced bronchoconstriction and tracheal smooth muscle contraction
